The values below come from ChEMBL document CHEMBL3046197, “Relation between Penetration Rates of Pesticides and Partition Coefficients in Topical Application to Spodoptera litura” (J Pestic Sci, 2001).

Series [1] relates to Spodoptera litura. The series can be described thus: Drug uptake in Spodoptera litura assessed as surface residue level 0.2 ug/insect after 16 hr. Type of series: ADME, organism-based. The note with it: in vivo, topical_or_ocular.
The test system of series [2] is Spodoptera litura. In words: Drug uptake in Spodoptera litura assessed as recovered drug level 0.2 ug/insect after 16 hr. The series is classed as ADME, organism-based. The note with it: in vivo.
The nature of series [3]: Octanol-water partition coefficient, log P of the compound by shake-flask method. The series is classed as physicochemical.
Series [4] relates to Spodoptera litura. The series can be described thus: Drug uptake in Spodoptera litura assessed as unchanged drug level 0.2 ug/insect after 8 hr. The series is classed as ADME, organism-based. As to conditions: in vivo.
Series [5] deals with Spodoptera litura. In words: Drug uptake in Spodoptera litura assessed as penetrated drug level 0.2 ug/insect after 8 hr. Type of series: ADME, organism-based. The note with it: in vivo.
Series [6] relates to Spodoptera litura. In words: Drug uptake in Spodoptera litura assessed as recovered drug level 0.2 ug/insect after 8 hr. Type of series: ADME, organism-based. As to conditions: in vivo.
Series [7] has as its system Spodoptera litura. The series can be described thus: Drug uptake in Spodoptera litura assessed as penetrated drug level 0.2 ug/insect after 16 hr. The note with it: in vivo. Type of series: ADME, organism-based.
In series [8] the test system is Spodoptera litura. The series can be described thus: Drug uptake in Spodoptera litura assessed as surface residue level 0.2 ug/insect after 8 hr. Type of series: ADME, organism-based. As to conditions: in vivo.
Series [9] has as its system Spodoptera litura. In words: Drug uptake in Spodoptera litura assessed as surface residue level 0.2 ug/insect after 3 hr. Type of series: ADME, organism-based. The note with it: in vivo.
Series [10] deals with Spodoptera litura. In words: Drug uptake in Spodoptera litura assessed as recovered drug level 0.2 ug/insect after 3 hr. As to conditions: in vivo. Type of series: ADME, organism-based.
The subject of series [11] is Spodoptera litura. In words: Drug uptake in Spodoptera litura assessed as unchanged drug level 0.2 ug/insect after 3 hr. The note with it: in vivo. The series is classed as ADME, organism-based.
Series [12] deals with Spodoptera litura. The series can be described thus: Drug uptake in Spodoptera litura assessed as penetrated drug level 0.2 ug/insect after 3 hr. The series is classed as ADME, organism-based. As to conditions: in vivo.
The test system of series [13] is Spodoptera litura. In words: Drug uptake in Spodoptera litura assessed as unchanged drug level 0.2 ug/insect after 0.5 hr. As to conditions: in vivo. Type of series: ADME, organism-based.
Series [14] concerns Spodoptera litura. The series can be described thus: Drug uptake in Spodoptera litura assessed as surface residue level 0.2 ug/insect after 1 hr. The series is classed as ADME, organism-based. The note with it: in vivo.
In series [15] the test system is Spodoptera litura. In words: Drug uptake in Spodoptera litura assessed as penetrated drug level 0.2 ug/insect after 0.5 hr. Type of series: ADME, organism-based. The note with it: in vivo.
In series [16] the test system is Spodoptera litura. The series can be described thus: Drug uptake in Spodoptera litura assessed as penetrated drug level 0.2 ug/insect after 1 hr. Type of series: ADME, organism-based. The note with it: in vivo.
Series [17] relates to Spodoptera litura. In words: Drug uptake in Spodoptera litura assessed as recovered drug level 0.2 ug/insect after 1 hr. The series is classed as ADME, organism-based. The note with it: in vivo.
The subject of series [18] is Spodoptera litura. The series can be described thus: Drug uptake in Spodoptera litura assessed as recovered drug level 0.2 ug/insect after 0.5 hr. Type of series: ADME, organism-based. As to conditions: in vivo.
Series [19] relates to Spodoptera litura. The series can be described thus: Drug uptake in Spodoptera litura assessed as surface residue level 0.2 ug/insect after 0.5 hr. The series is classed as ADME, organism-based. As to conditions: in vivo, topical_or_ocular.
For series [20], the system named is Spodoptera litura. In words: Drug uptake in Spodoptera litura assessed as penetrated drug level 0.2 ug/insect after 6 hr. As to conditions: in vivo. The series is classed as ADME, organism-based.
Series [21] relates to Spodoptera litura. In words: Drug uptake in Spodoptera litura assessed as unchanged drug level 0.2 ug/insect after 1 hr. Type of series: ADME, organism-based. As to conditions: in vivo.
Series [22] concerns Spodoptera litura. In words: Drug uptake in Spodoptera litura assessed as recovered drug level 0.2 ug/insect after 6 hr. As to conditions: in vivo. Type of series: ADME, organism-based.
The test system of series [23] is Spodoptera litura. In words: Drug uptake in Spodoptera litura assessed as surface residue level 0.2 ug/insect after 6 hr. Type of series: ADME, organism-based. As to conditions: in vivo.
Series [24] deals with Spodoptera litura. The series can be described thus: Drug uptake in Spodoptera litura assessed as recovered drug level 0.2 ug/insect after 4 hr. Type of series: ADME, organism-based. The note with it: in vivo.
Series [25] has as its system Spodoptera litura. The series can be described thus: Drug uptake in Spodoptera litura assessed as penetrated drug level 0.2 ug/insect after 4 hr. Type of series: ADME, organism-based. The note with it: in vivo.
Series [26] has as its system Spodoptera litura. The series can be described thus: Drug uptake in Spodoptera litura assessed as surface residue level 0.2 ug/insect after 2 hr. Type of series: ADME, organism-based. The note with it: in vivo.
In series [27] the test system is Spodoptera litura. The series can be described thus: Drug uptake in Spodoptera litura assessed as unchanged drug level 0.2 ug/insect after 2 hr. The series is classed as ADME, organism-based. As to conditions: in vivo.
Series [28] has as its system Spodoptera litura. In words: Drug uptake in Spodoptera litura assessed as penetrated drug level 0.2 ug/insect after 2 hr. The note with it: in vivo. Type of series: ADME, organism-based.
The subject of series [29] is Spodoptera litura. In words: Drug uptake in Spodoptera litura assessed as recovered drug level 0.2 ug/insect after 2 hr. The series is classed as ADME, organism-based. As to conditions: in vivo.
Series [30] relates to Spodoptera litura. In words: Drug uptake in Spodoptera litura assessed as surface residue level 0.2 ug/insect after 4 hr. As to conditions: in vivo. The series is classed as ADME, organism-based.
Series [31] concerns Spodoptera litura. The series can be described thus: Drug uptake in Spodoptera litura assessed as penetrated drug level 0.2 ug/insect after 24 hr. The series is classed as ADME, organism-based. The note with it: in vivo.
Series [32] has as its system Spodoptera litura. In words: Drug uptake in Spodoptera litura assessed as unchanged drug level 0.2 ug/insect after 4 hr. As to conditions: in vivo. The series is classed as ADME, organism-based.
For series [33], the system named is Spodoptera litura. The series can be described thus: Drug uptake in Spodoptera litura assessed as recovered drug level 0.2 ug/insect after 24 hr. Type of series: ADME, organism-based. The note with it: in vivo.
For series [34], the system named is Spodoptera litura. The series can be described thus: Drug uptake in Spodoptera litura assessed as surface residue level 0.2 ug/insect after 24 hr. The series is classed as ADME, organism-based. The note with it: in vivo, topical_or_ocular.

As usually defined, the logP is a log measure of how a compound divides between an organic and an aqueous phase. A low value points to lower lipophilicity.

Take `CC(C)=C[C@@H]1[C@@H](C(=O)OCN2C(=O)C3=C(CCCC3)C2=O)C1(C)C` [(1R)-TRANS-TETRAMETHRIN]: the Drug uptake in the series on Spodoptera litura [1] is reported as 44.9%; in the series with Spodoptera litura [4] it was 60.3%; in the series with Spodoptera litura [5], 21.2%; in the series on Spodoptera litura [7], 35.2%; in the series with Spodoptera litura [8] it was 63.7%. In addition, the Drug recovery in the series on Spodoptera litura [2] worked out at 80.1%; in the series with Spodoptera litura [6] it was 84.9%. The molecule also showed a lipophilicity (logP) in [3] of 4.73.

Turning to `CCOP(=S)(Oc1ccc(C#N)cc1)c1ccccc1` (centres undefined) [CYANOFENPHOS], the Drug uptake is reported as 39.9% with Spodoptera litura [9]; 84.6% in the series with Spodoptera litura [5]; 37.4% with Spodoptera litura [11]; 56.5% in the series on Spodoptera litura [12]; 11.3% with Spodoptera litura [8]. The results for the Drug recovery in the series on Spodoptera litura [10] and with Spodoptera litura [6] were 96.4% and 96%, respectively.

Take `COP(=O)(OC)Oc1ccc(C#N)cc1` [CYANOPHOS-OXON]: the Drug uptake in the series on Spodoptera litura [13] is reported as 29.3%; in the series on Spodoptera litura [15], 55.4%; in the series with Spodoptera litura [16] it was 65.5%; in the series with Spodoptera litura [19], 34.5%. Further, the Surface residue in the series with Spodoptera litura [14] came out at 31.2%. Besides, the logP in [3] came to 0.84. Also, the Drug recovery with Spodoptera litura [17] was found to be 96.7%; in the series with Spodoptera litura [18], 89.9%.

Turning to `COP(=S)(OC)Oc1ccc(C#N)cc1` [CYANOPHOS], the Surface residue with Spodoptera litura [14] was 37.4%. Moreover, the Drug uptake in the series on Spodoptera litura [20] turned out to be 72.8%; with Spodoptera litura [21], 34.3%; in the series on Spodoptera litura [16] it was 39.2%; in the series with Spodoptera litura [23], 8.1%. In series [3], this molecule had a logP of 2.65. Also, the values for the Drug recovery with Spodoptera litura [22] and with Spodoptera litura [17] were 80.9% and 76.6%, respectively.

On to `CCOc1ccc(NC(=O)OC(C)C)cc1OCC` [DIETHENOFENCARB], for which the Drug uptake in the series with Spodoptera litura [9] amounted to 56.6%; in the series with Spodoptera litura [1], 18.1%; in the series on Spodoptera litura [11] it was 52.6%; in the series on Spodoptera litura [12], 31.9%; in the series on Spodoptera litura [7], 63.5%. Further, the figures for the Drug recovery in the series on Spodoptera litura [2] and with Spodoptera litura [10] were 81.7% and 88.5%, respectively. The same molecule displayed a logP in [3] of 3.02.

In the case of `COP(=S)(OC)Oc1ccc([N+](=O)[O-])c(C)c1` [FENITROTHION], the Surface residue in the series on Spodoptera litura [14] was 43.6%. Besides, the Drug uptake with Spodoptera litura [20] turned out to be 71%; in the series on Spodoptera litura [21], 40.9%; in the series with Spodoptera litura [16], 51.2%; with Spodoptera litura [23], 10.8%. The values for the Drug recovery in the series with Spodoptera litura [22] and in the series with Spodoptera litura [17] were 81.8% and 94.8%, respectively.

As to `COP(=O)(OC)Oc1ccc([N+](=O)[O-])c(C)c1` [FENITROXON], the Drug uptake in the series with Spodoptera litura [9] worked out at 25.3%; with Spodoptera litura [13], 42.7%; in the series on Spodoptera litura [15], 51.5%; with Spodoptera litura [12], 62.4%; with Spodoptera litura [19], 44.9%. Also, the Drug recovery is 87.8% in the series with Spodoptera litura [10] and 96.4% in the series with Spodoptera litura [18].

As for `CC1(C)C(C(=O)OC(C#N)c2cccc(Oc3ccccc3)c2)C1(C)C` (centres undefined) [FENPROPATHRIN], the Drug recovery was 82.3% with Spodoptera litura [24] and 90.8% in the series on Spodoptera litura [29]. The Drug uptake in the series on Spodoptera litura [25] amounted to 13.1%; in the series on Spodoptera litura [26], 68.8%; with Spodoptera litura [27] it was 66.5%; in the series on Spodoptera litura [28], 22%; in the series on Spodoptera litura [30], 69.2%. In [3], this molecule displayed a logP of 6.

On to `CCOP(=S)(OCC)Oc1ccc([N+](=O)[O-])cc1` [PARATHION], for which, in the series with Spodoptera litura [14], the Surface residue is reported as 60.6%. The Drug uptake with Spodoptera litura [20] is recorded as 78.9%; in the series on Spodoptera litura [21], 56.8%; in the series with Spodoptera litura [16], 35%; in the series with Spodoptera litura [23], 10.9%. Moreover, the Drug recovery is reported as 89.8% in the series on Spodoptera litura [22] and 95.6% in the series on Spodoptera litura [17].

Consider `CC(COc1ccc(Oc2ccccc2)cc1)Oc1ccccn1` (centres undefined) [PYRIPROXYFEN], for which the Drug recovery is reported as 96.7% in the series on Spodoptera litura [24] and 84% with Spodoptera litura [33]. Further, the Drug uptake in the series with Spodoptera litura [31] worked out at 76.4%; in the series on Spodoptera litura [25] it was 40.3%; with Spodoptera litura [32] it was 55.3%; with Spodoptera litura [34], 7.6%; in the series on Spodoptera litura [30], 56.4%. The molecule also came in with a logP in [3] of 5.31.

In the case of `CC(C)(C)N(NC(=O)c1ccccc1)C(=O)c1ccccc1` [RH-5849], the Drug recovery in the series with Spodoptera litura [4] is given as 38.4%. Moreover, the results for the Drug uptake in the series with Spodoptera litura [34] and with Spodoptera litura [8] were 50.2% and 52.3%, respectively.
